Measurements reported in PMC9127750, “Structure-based design of CDC42 effector interaction inhibitors for the treatment of cancer” (Cell reports, 2022).
Several values for one entry are separate records, joined by “and”; a condition that tells them apart may be missing. Identical values can stand only once.

System: WM3248 melanoma cells, 486 antibodies
Assay: Reverse phase protein arrays (RPPA)
Type: cell-based, Human
Conditions: normalized to 0
Source text: Pellets were snap frozen in liquid nitrogen and shipped to MD Anderson Cancer Center core RPPA facility for RPPA analysis (Table S5). Three biological replicates for each sample were generated.
Nomenclatures on the RPPA heatmaps: name_of_antibody.species_of_antibody.status_of_antibody. V - antibody validated; C - validation of antibody in progress; Q - antibody nonspecific; E – under evaluation; antibodies raised in M - mouse, G - goat, R - rabbit, or T - rat.

## CN(C)c1cccc(Nc2cc(-c3ccccc3)nc(C3CCNCC3)n2)c1 [ARN22089, N1,N1-dimethyl-N3-(6-phenyl-2-(piperidin-4-yl)pyrimidin-4-yl)benzene-1,3-diamine]
10, average
  FoxO3a_pS318_S321.R.C Norm_10 Average: 1.029
  G6PD.R.V Norm_10 Average: 1.034
  GATA3.M.V Norm_10 Average: 1.281
  GATA6.R.V Norm_10 Average: 1.018
  GCLC.R.C Norm_10 Average: 0.996
  GCLM.R.V Norm_10 Average: 1.023
  GCN5L2.R.V Norm_10 Average: 0.928
  GRB2.R.V Norm_10 Average: 0.887
  GRB7.R.V Norm_10 Average: 0.924
  GSK.3B.R.C Norm_10 Average: 0.899
  GSK.3a.b.M.V Norm_10 Average: 1.031
  GSK.3a.b_pS21_S9.R.V Norm_10 Average: 1.266
  Gab2.R.V Norm_10 Average: 1.065
  Gli1.R.C Norm_10 Average: 1.005
  Gli3.R.C Norm_10 Average: 1.134
  Glucocorticoid.Receptor.R.V Norm_10 Average: 1.119
  Glutamate.D1.2.R.V Norm_10 Average: 1.156
  Granzyme.B.R.V Norm_10 Average: 0.968
  Grp75.R.C Norm_10 Average: 1.129
  Gys.R.V Norm_10 Average: 0.931
  Gys_pS641.R.V Norm_10 Average: 0.978
  H2AX_pS139.R.C Norm_10 Average: 0.977
  H2AX_pS140.M.C Norm_10 Average: 1.138
  HER2.M.V Norm_10 Average: 1.033
  HER2_pY1248.R.V Norm_10 Average: 0.915
  HER3_pY1289.R.C Norm_10 Average: 1.047
  HES1.R.V Norm_10 Average: 0.974
  eEF2.R.C Norm_10 Average: 1.492
  eEF2K.R.V Norm_10 Average: 1.201
  eIF4E.R.V Norm_10 Average: 0.994
  eIF4E_pS209.R.V Norm_10 Average: 0.960
  eIF4G.R.C Norm_10 Average: 0.972
10, replicates 1-3
  DNMT1.R.V Norm_10: 1.003 and 1.020 and 1.147
  DRP1.R.V Norm_10: 0.964 and 0.992
  DUSP4.R.V Norm_10: 0.853 and 0.881 and 0.939
  DUSP6.R.C Norm_10: 1.409 and 0.561
  DYRK1B.R.C Norm_10: 0.895 and 0.964 and 0.986
  Dvl3.R.V Norm_10: 0.922 and 1.053 and 0.910
  E2F1.R.V Norm_10: 1.049 and 1.123 and 1.077
  E.Cadherin.R.V Norm_10: 0.791 and 0.958
  EGFR.R.V Norm_10: 0.866 and 1.059 and 1.002
  EGFR_pY1068.R.C Norm_10: 0.894 and 0.930 and 1.047
  EGFR_pY1173.R.V Norm_10: 1.016 and 0.963 and 0.929
  EMA.M.C Norm_10: 0.676 and 1.005
  ENY2.M.C Norm_10: 0.937 and 1.132
  ER.a.R.V Norm_10: 0.989 and 0.867 and 0.907
  ER.a_pS118.R.V Norm_10: 1.111 and 0.755 and 0.869
  ERCC1.R.C Norm_10: 0.934 and 1.208 and 0.991
  ERCC5.R.C Norm_10: 0.985 and 0.864
  ERRalpha.R.V Norm_10: 0.941 and 1.106 and 0.995
  EVI1.R.V Norm_10: 0.864 and 1.146 and 1.022
  Elk1_pS383.R.C Norm_10: 1.027 and 0.931
  Enolase.1.R.V Norm_10: 0.940 and 1.265 and 1.276
  Enolase.2.R.V Norm_10: 0.995 and 1.149 and 0.982
  EphA2.R.V Norm_10: 0.867 and 0.985 and 0.905
  EphA2_pS897.R.C Norm_10: 0.664 and 0.906 and 1.028
  EphA2_pY588.R.C Norm_10: 0.917 and 0.980 and 0.925
  Erk5.R.V Norm_10: 0.835 and 0.809 and 0.986
  Ets.1.R.V Norm_10: 1.099 and 1.361 and 1.457
  FABP5.R.C Norm_10: 0.950 and 1.278 and 1.483
  FAK.R.C Norm_10: 0.896 and 0.913 and 1.054
  FAK_pY397.R.V Norm_10: 0.925 and 1.035 and 0.946
  FANCD2.R.V Norm_10: 0.931 and 0.985 and 0.874
  FASN.R.V Norm_10: 1.108 and 0.851 and 0.928
  FGF.basic.R.C Norm_10: 0.849 and 0.905 and 1.085
  FN14.R.C Norm_10: 1.121
  FOXM1.R.V Norm_10: 0.803 and 0.992 (2×)
  FOXO3.R.V Norm_10: 0.977 and 1.253 and 1.014
  FRS2.alpha_pY196.R.V Norm_10: 0.953 and 2.062 and 1.103
  FTO.R.V Norm_10: 0.987 and 1.185 and 1.127
  Fibronectin.R.V Norm_10: 0.978 and 1.062 and 1.006
  FoxO3a_pS318_S321.R.C Norm_10: 0.963 and 1.140 and 0.984
  G6PD.R.V Norm_10: 0.932 and 1.169 and 1.001
  GATA3.M.V Norm_10: 1.235 and 1.401 and 1.207
  GATA6.R.V Norm_10: 1.020 and 1.082 and 0.952
  GCLC.R.C Norm_10: 0.939 and 0.967 and 1.083
  GCLM.R.V Norm_10: 0.965 and 1.111 and 0.992
  GCN5L2.R.V Norm_10: 0.997 and 0.898 and 0.890
  GGPS1.M.V Norm_10: 0.913 and 1.085 and 1.264
  GRB2.R.V Norm_10: 0.867 and 0.876 and 0.919
  GRB7.R.V Norm_10: 0.829 and 0.838 and 1.106
  GSK.3B.R.C Norm_10: 0.867 and 0.924 and 0.907
  GSK.3a.b.M.V Norm_10: 0.998 and 1.049
  GSK.3a.b_pS21_S9.R.V Norm_10: 1.903 and 0.801
  Gab2.R.V Norm_10: 1.165 and 1.098 and 0.933
  Gli1.R.C Norm_10: 0.913 and 0.965 and 1.136
  Gli3.R.C Norm_10: 1.151 and 1.082 and 1.169
  Glucocorticoid.Receptor.R.V Norm_10: 1.159 and 1.201 and 0.996
  Glutamate.D1.2.R.V Norm_10: 0.997 and 1.319 and 1.150
  Glutaminase.R.C Norm_10: 0.936 and 1.126 and 1.162
  Granzyme.B.R.V Norm_10: 1.207 and 0.777 and 0.921
  Grp75.R.C Norm_10: 1.100 and 1.356 and 0.930
  Gys.R.V Norm_10: 0.972 and 0.858 and 0.963
  Gys_pS641.R.V Norm_10: 0.959 and 0.885
  H2AX_pS139.R.C Norm_10: 0.952 and 0.894
  H2AX_pS140.M.C Norm_10: 0.944 and 1.316 and 1.153
  HER2.M.V Norm_10: 1.003 and 1.056
  HER2_pY1248.R.V Norm_10: 0.907 and 0.828 and 1.009
  HER3.R.V Norm_10: 0.945 and 1.026 and 0.936
  HER3_pY1289.R.C Norm_10: 1.083 and 1.014
  HES1.R.V Norm_10: 1.156 and 0.918 and 0.849
  Heregulin.R.V Norm_10: 0.988 and 0.972 and 0.854
  eEF2.R.C Norm_10: 1.541 and 1.276 and 1.659
  eEF2K.R.V Norm_10: 1.101 and 1.387 and 1.115
  eIF4E.R.V Norm_10: 1.636 and 0.500 and 0.846
  eIF4E_pS209.R.V Norm_10: 0.984 and 0.803
  eIF4G.R.C Norm_10: 0.963
20, average
  DRP1.R.V Norm_20 Average: 0.964
  DUSP4.R.V Norm_20 Average: 0.723
  DUSP6.R.C Norm_20 Average: 1.555
  Dvl3.R.V Norm_20 Average: 1.031
  E2F1.R.V Norm_20 Average: 1.247
  E.Cadherin.R.V Norm_20 Average: 0.854
  EGFR.R.V Norm_20 Average: 1.132
  EGFR_pY1068.R.C Norm_20 Average: 0.914
  EGFR_pY1173.R.V Norm_20 Average: 1.048
  EMA.M.C Norm_20 Average: 0.783
  ENY2.M.C Norm_20 Average: 0.952
  ER.a.R.V Norm_20 Average: 0.959
  ER.a_pS118.R.V Norm_20 Average: 1.311
  ERCC5.R.C Norm_20 Average: 1.110
  ERRalpha.R.V Norm_20 Average: 0.963
  EVI1.R.V Norm_20 Average: 0.976
  Elk1_pS383.R.C Norm_20 Average: 1.105
  Enolase.2.R.V Norm_20 Average: 0.948
  EphA2.R.V Norm_20 Average: 0.748
  EphA2_pS897.R.C Norm_20 Average: 0.630
  EphA2_pY588.R.C Norm_20 Average: 0.974
  Erk5.R.V Norm_20 Average: 0.917
  Ets.1.R.V Norm_20 Average: 1.379
  FABP5.R.C Norm_20 Average: 1.251
  FAK.R.C Norm_20 Average: 0.978
  FAK_pY397.R.V Norm_20 Average: 0.925
  FANCD2.R.V Norm_20 Average: 0.851
  FASN.R.V Norm_20 Average: 0.957
  FGF.basic.R.C Norm_20 Average: 1.005
  FN14.R.C Norm_20 Average: 1.106
  FOXM1.R.V Norm_20 Average: 0.936
  FRS2.alpha_pY196.R.V Norm_20 Average: 1.059
  FTO.R.V Norm_20 Average: 1.058
  Fibronectin.R.V Norm_20 Average: 1.193
  FoxO3a_pS318_S321.R.C Norm_20 Average: 1.005
  G6PD.R.V Norm_20 Average: 0.954
  GATA3.M.V Norm_20 Average: 1.318
  GATA6.R.V Norm_20 Average: 0.955
  GCLC.R.C Norm_20 Average: 1.023
  GCLM.R.V Norm_20 Average: 0.992
  GCN5L2.R.V Norm_20 Average: 0.995
  GGPS1.M.V Norm_20 Average: 1.022
  GRB2.R.V Norm_20 Average: 0.934
  GRB7.R.V Norm_20 Average: 0.995
  GSK.3B.R.C Norm_20 Average: 0.882
  GSK.3a.b.M.V Norm_20 Average: 0.925
  GSK.3a.b_pS21_S9.R.V Norm_20 Average: 1.221
  Gab2.R.V Norm_20 Average: 1.169
  Gli3.R.C Norm_20 Average: 1.301
  Glucocorticoid.Receptor.R.V Norm_20 Average: 1.170
  Glutamate.D1.2.R.V Norm_20 Average: 1.186
  Grp75.R.C Norm_20 Average: 1.195
  Gys_pS641.R.V Norm_20 Average: 0.856
  H2AX_pS139.R.C Norm_20 Average: 1.433
  H2AX_pS140.M.C Norm_20 Average: 1.232
